According to patent publication US20260373155A1, “TRANSDERMALLY- OR TOPICALLY-ADMINISTERED COMPOSITION COMPRISING THIENOPYRIDINE COMPOUND” (GY LIFE SCIENCES CO., LTD., priority 2022, published 2026):
One block for each compound: values may come before it.

Legend:
[1] = Transdermal potential: plasma pharmacokinetics via topical, intravenous and intradermal routes in rats; type: in vivo, SD rats; conditions: 5 mpk; for AUC(0-inf) / AUC(0-t) at 24 h / Cmax / Tmax / half-life: rat, 5 mg/kg, male SD rats, phosphate salt form, plasma
Method: An experiment was conducted to evaluate the transdermal potential of the thienopyridine compound (API) using 7-week-old male SD rats. Specifically, the same 5 mpk dose of the thienopyridine compound was administered via three routes-transdermal (topical), intravenous (tail vein), and intradermal injections-simultaneously, following the compositions and methods shown in Table 1 (n=3 per group). The plasma concentration of the thienopyridine compound and pharmacokinetic parameters were then measured for each route.
In more detail, in each formulation the thienopyridine compound was used in phosphate salt form (compound:phosphoric acid=1:2.5 equivalents) at a concentration of 0.3 wt % in the carrier solution. For the transdermal formulation, the thienopyridine compound was first dissolved in a carrier solution lacking 3% […]™ EG, and then 3% […]™ EG (Seppic, France) was added with stirring for 3 minutes to impart viscosity. Blood samples were collected via the carotid artery at 0 (negative control sample), 0.03, 0.16, 0.25, 0.5, 1, 2, 4, 6, and 24 hours post-administration, placed into heparinized tubes, and centrifuged (3,000 rpm, 10 minutes). Plasma (13.5 μl) was stored at −20 °C until analyzed by LC-MS/MS within a week. Plasma concentrations of the thienopyridine compound were determined by LC-MS/MS. Each 13.5 μl plasma sample was mixed with 60 μl of acetonitrile containing 1 μg/mL of an internal standard, vortexed, and centrifuged at 6,000 rpm for 15 minutes; 50 μl of the supernatant was then mixed with 50 μl of distilled water for LC-MS/MS analysis. The LC-MS/MS system was an Agilent 1200 Series HPLC (Agilent, Santa Clara, CA) coupled with an AP13200® triple-quadrupole mass spectrometer (Applied Biosystems-SCIEX, Concord, Canada). The mobile phase was 0.1% formic acid in water (A) and acetonitrile (B). Chromatographic separation was achieved on a reverse-phase Atlantis™ T3 column (100×2.1 mm, 3 μm; Waters, Milford, MA) at a flow rate of 0.25 ml/min under a gradient. The LOQ was 9.7 ng/ml, and the correlation coefficient (R) for calibration was 0.997.
Pharmacokinetic parameters were determined by noncompartmental analysis using WinNonlin® (Pharsight, Mountain View, CA). The maximum plasma concentration (Cmax) was taken directly from the plasma concentration-time profile, and time to reach Cmax (Tmax) was recorded. The area under the concentration-time curve from time zero to the last time point (AUC0-24) was calculated by the trapezoidal rule […]. AUC∞ was calculated by summing AUC0-24 and AUC24-∞, the latter obtained by dividing the 24-hour plasma concentration by the terminal elimination rate.

[2] = tested on: Src/DDR tyrosine kinase family; conditions: see U.S. Pat. No. 9,062,066; cited from earlier work
[3] = Sun X et al. 2012; cited from earlier work
[4] = ultraviolet light; Korean Patent No. 10-1478302; cited from earlier work
[5] = Ju Yong Song 2016 thesis; cited from earlier work
[6] = Ju Yong Song 2016 thesis; cited from earlier work; remark: listed apart in the source
[7] = Fowler A J et al. 2019; US 2019-0262323; cited from earlier work
[8] = Solution stability of the hydrochloride salt with solubilizer or thickener (days without precipitation); type: physicochemical; conditions: 0.3% hydrochloride salt, aqueous phase, room temperature
Method: This experiment examined whether a solubilizer or thickener could maintain a stable solution (without solid precipitation due to self-aggregation) of the hydrochloride salt of the thienopyridine compound of Chemical Formula 1 in an aqueous phase at room temperature. Specifically, 0.3% of the hydrochloride salt was dissolved in a water-phase solution composed of water, PEG400, glycerol, propylene glycol, hexanediol, and polysorbate 60 (as per Table 3). It was heated at 80 °C with stirring for 10 minutes for complete dissolution, then cooled to room temperature. 1% (w/w) of urea or polyvinylpyrrolidone (PVP K-30) was tested as a solubilizer by being added to the solution.
Additionally, 2% (w/w) of xanthan gum, carboxymethyl cellulose, or PEG-240/HDI copolymer bis-decyltetradeceth-20 ether was tested as a thickener. Various combinations were also tested. The day on which precipitation first appeared was noted by visual or microscopic observation. The maximum days with no precipitation was recorded. […] Confirmatory mass spectrometry and ^1H-NMR indicated the precipitate was the compound of Chemical Formula 1.

[9] = Comparison of L-menthol with other known transdermal permeation enhancers (AUC∞ of the thienopyridine compound); type: in vivo; conditions: AUC∞ after transdermal administration, component replaced with water, mice, FIG. 3
Method: Other reported transdermal permeation enhancers were tested to see how they affect the skin permeability of the thienopyridine compound.
Variants of the Example 1 formulation were created by removing one of the following and replacing it with water: propylene glycol, glycerol, or urea. Each variant was administered transdermally to mice (n=3) as in Experimental Example 2. Blood samples were analyzed to obtain plasma concentration-time profiles and the resulting average AUC∞±SD. These were compared by bar chart (FIG. 3) with the Example 1 formulation (with L-menthol) and Comparative Example 1 (without L-menthol). The asterisk (*) indicates p<0.01 (t-test).

[10] = topical or ocular, topical application

AUC(0-inf) ([1]; intradermal injection): 446 ± 160 ng·h/mL
AUC(0-t) at 24 h ([1]; intradermal injection): 315 ± 197 ng·h/mL
Cmax ([1]; intradermal injection): 40.3 ± 15.7 ng/mL
Tmax ([1]; intradermal injection): 0.65 ± 0.335 h
half-life ([1]; intradermal injection): 8.32 ± 3.15 h
AUC(0-inf) ([1]; intravenous (iv)): 619 ± 219 ng·h/mL
AUC(0-t) at 24 h ([1]; intravenous (iv)): 514 ± 222 ng·h/mL
half-life ([1]; intravenous (iv)): 2.74 ± 1.81 h
AUC(0-inf) [1, 10]: 49.4 ± 37.7 ng·h/mL
AUC(0-t) at 24 h [1, 10]: 41.7 ± 8.84 ng·h/mL
Cmax [1, 10]: 10.4 ± 13.5 ng/mL
Tmax [1, 10]: 1.38 ± 1.75 h
half-life [1, 10]: 5.46 ± 2.29 h
transdermal absorption relative to intravenous or intradermal administration ([1]; topical vs intravenous or intradermal, rats): about one-tenth
SMILES: Oc1cccc(Nc2ccnc3cc(-c4cccc(CN5CCOCC5)c4)sc23)c1 [thienopyridine compound, 3-[[2-[3-(4-morpholinylmethyl)phenyl]thieno[3,2-b]pyridin-7-yl]amino]phenol]
inhibition of kinase activity [2]: strongly inhibits
anti-inflammatory and anti-scarring activities, repair of damaged skin tissue [3]: exhibits anti-inflammatory and anti-scarring activities and promotes the repair of damaged skin tissue
anti-aging activity, wrinkle formation [4]: suppresses wrinkle formation
suppression of histamine-induced pruritus [5]: suppresses histamine-induced pruritus
suppression of SLIGRL-NH2-induced pruritus [6]: effectively suppresses
progression of degenerative brain diseases [7]: suppress the progression of degenerative brain diseases

maximum days with no precipitation ([8]; thickener 2% PEG-240/HDI copolymer bis-decyltetradeceth-20 ether, solubilizer 1% polyvinylpyrrolidone (k30)): >7 days
maximum days with no precipitation ([8]; thickener 2% PEG-240/HDI copolymer bis-decyltetradeceth-20 ether, solubilizer 1% urea): 6 days
maximum days with no precipitation ([8]; thickener 2% PEG-240/HDI copolymer bis-decyltetradeceth-20 ether, solubilizer none): 6 days
maximum days with no precipitation ([8]; thickener 2% carboxymethyl cellulose, solubilizer 1% polyvinylpyrrolidone (k30)): 1 days
maximum days with no precipitation ([8]; thickener 2% carboxymethyl cellulose, solubilizer 1% urea): 1 days
maximum days with no precipitation ([8]; thickener 2% carboxymethyl cellulose, solubilizer none): 1 days
maximum days with no precipitation ([8]; thickener 2% xanthan gum, solubilizer 1% polyvinylpyrrolidone (k30)): 1 days
maximum days with no precipitation ([8]; thickener 2% xanthan gum, solubilizer 1% urea): 1 days
maximum days with no precipitation ([8]; thickener 2% xanthan gum, solubilizer none): 1 days
maximum days with no precipitation ([8]; thickener none, solubilizer 1% polyvinylpyrrolidone (k30)): 5 days
maximum days with no precipitation ([8]; thickener none, solubilizer 1% urea): 1 days
maximum days with no precipitation ([8]; thickener none, solubilizer none): 1 days
SMILES: Oc1cccc(Nc2ccnc3cc(-c4cccc(CN5CCOCC5)c4)sc23)c1

effect on transdermal permeability of the thienopyridine compound [9]: uniquely strong enhancing effect
SMILES: CC1CCC(C(C)C)C(O)C1 (stereo not drawn) [menthol]

effect on transdermal permeability of the thienopyridine compound [9]: virtually no effect
SMILES: NC(N)=O [urea]

effect on transdermal permeability of the thienopyridine compound [9]: virtually no effect
SMILES: CC(O)CO (stereo not drawn) [propylene glycol]

effect on transdermal permeability of the thienopyridine compound [9]: virtually no effect
SMILES: OCC(O)CO [glycerol]
